Drawing on ChEMBL document CHEMBL1151306, “Inhibitory activity of unsaturated fatty acids and anacardic acids toward soluble tissue factor-factor VIIa complex” (J Nat Prod, 1998), this text covers IC50 and logP for 13 compounds.

“And” between values parts separate entries of the source, which are not always exact repeats. Equal values may be shown once. Some results are limits rather than exact numbers.

Series [1] addresses T1, Trypsin (Sus scrofa, UniProt P00761).
Description: (§1) Inhibition of pig pancreatic trypsin after 15 mins
For series [2] the following is noted: octanol/water.
Description: (§2) Octanol-water partition coefficient, log P of the compound
A short description of series [3]: physchem. The settings on record: octanol/water.
Description: as §2
Series [4] has as its target Coagulation factor VII/tissue factor (Homo sapiens, UniProt P08709).
Description: Inhibition of amidolytic activity of human tissue factor/human factor 7a
For series [5], the target named is T1, Trypsin. The source holds these as a separate data set.
Description: as §1

Coagulation factor VII/tissue factor, sequence (P08709 61-212 limits assumed): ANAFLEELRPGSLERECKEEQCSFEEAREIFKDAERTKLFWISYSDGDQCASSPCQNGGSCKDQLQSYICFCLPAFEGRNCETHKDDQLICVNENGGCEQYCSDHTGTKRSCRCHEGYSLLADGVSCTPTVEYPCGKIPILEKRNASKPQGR
Coagulation factor VII/tissue factor, sequence (P08709 213-466 limits assumed): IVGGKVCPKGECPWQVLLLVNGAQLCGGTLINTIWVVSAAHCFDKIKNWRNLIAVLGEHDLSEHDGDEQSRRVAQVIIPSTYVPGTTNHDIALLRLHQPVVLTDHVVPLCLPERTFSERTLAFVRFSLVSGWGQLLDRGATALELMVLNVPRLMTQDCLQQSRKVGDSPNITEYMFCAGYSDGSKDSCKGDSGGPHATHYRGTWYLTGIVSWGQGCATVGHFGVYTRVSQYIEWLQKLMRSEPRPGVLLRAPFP
Coagulation factor VII/tissue factor, sequence (P13726 33-295 partner limits assumed): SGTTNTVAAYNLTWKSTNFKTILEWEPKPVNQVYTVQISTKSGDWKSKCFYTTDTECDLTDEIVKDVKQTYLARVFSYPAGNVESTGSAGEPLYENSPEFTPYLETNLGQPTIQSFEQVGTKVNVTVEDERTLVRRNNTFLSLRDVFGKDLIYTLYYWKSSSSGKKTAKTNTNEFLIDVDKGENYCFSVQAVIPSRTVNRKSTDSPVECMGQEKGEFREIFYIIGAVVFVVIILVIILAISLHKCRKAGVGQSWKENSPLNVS
T1 sequence (P00761 whole entry): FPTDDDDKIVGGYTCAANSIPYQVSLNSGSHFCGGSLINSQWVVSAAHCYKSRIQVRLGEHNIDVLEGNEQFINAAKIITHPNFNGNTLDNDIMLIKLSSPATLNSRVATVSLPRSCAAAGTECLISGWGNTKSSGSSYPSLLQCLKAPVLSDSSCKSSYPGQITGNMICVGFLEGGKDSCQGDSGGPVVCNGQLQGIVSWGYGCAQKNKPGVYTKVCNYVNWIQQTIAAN

What is called IC50 is the point on the concentration scale where inhibition reaches its midpoint. The low end stands for greater potency, the high end for weaker potency. Usually logP stands for the decadic logarithm of the partition coefficient of the neutral form, usually between octanol and water. Read a high logP as a more lipophilic compound. As to `CCCCC/C=C\C/C=C\C/C=C\CCCCCCC(=O)O` [DIHOMO-GAMMA-LINOLENIC ACID], the IC50 in series [1] is over 200 µM; in series [4], 75 µM and 30 µM; in series [5], over 200 µM. For the same compound, the figures for the logP in series [2] and in series [3] (logP) were 3.28 and 3.5, respectively.
For the compound `CCCCC/C=C\C/C=C\CCCCCCCc1cccc(O)c1C(=O)O`, the IC50 is over 200 µM in series [1] and 33 µM in series [4]. Also, in series [3] (logP), the logP was found to be 3.72.
`CCCC/C=C\CCCCCCCC(=O)O` [MYRISTOLEIC ACID]: the IC50 in series [1] was over 200 µM; in series [4], 66 µM.
For the compound `CCCCC/C=C\C/C=C\C/C=C\CCCCC(=O)O` [GAMOLENIC ACID], the IC50 in series [1] is over 200 µM; in series [4] it was 30 µM. Moreover, the logP in series [3] (logP) was 2.55.
For `CCCCC/C=C\C/C=C\CCCCCCCCCC(=O)O` the same measures were over 200 µM, 52 µM and 2.41.
As to `CC/C=C\C/C=C\C/C=C\CCCCCCCC(=O)O` [LINOLENIC ACID], the IC50 in series [1] was over 200 µM; in series [4], 30 µM. The logP in series [3] (logP) was 2.51.
For the compound `CC/C=C\C/C=C\C/C=C\CCCCCCCCCC(=O)O`, the values for the IC50 in series [1] and in series [4] were over 200 µM and 100 µM, respectively. Moreover, the log partition coefficient (logP) in series [3] (logP) was determined as 3.3.
On to `CCCCC/C=C\C/C=C\C/C=C\C/C=C\CCCC(=O)O` [ARACHIDONIC ACID], for which the IC50 in series [1] is over 200 µM; in series [4], 105 µM. The compound further showed a logP in series [3] of 2.9.
As for `CCCCC/C=C\C/C=C\CCCCCCCC(=O)O` [LINOLEIC ACID], the IC50 was over 200 µM in series [1] and 41 µM in series [4]. In series [3] (logP), this compound showed a logP of 3.
Regarding `CCCCCCCC/C=C\CCCCCCCC(=O)O` [OLEIC ACID], the figures for the IC50 in series [1] and in series [4] were over 200 µM and 80 µM, respectively. Besides, the logP in series [3] (logP) was 3.54.
In the same order, the values of `CC/C=C\C/C=C\C/C=C\C/C=C\C/C=C\CCCC(=O)O` [ICOSAPENT] are over 200 µM, 78 µM and 2.48.
In the same order, the values of `CCCCCC/C=C\CCCCCCCc1cccc(O)c1C(=O)O` [GINGKOLIC ACID] are over 200 µM, 32 µM and 3.99.
In the same order, the values of `CCCCCC/C=C\CCCCCCCC(=O)O` [PALMITOLEIC ACID] are over 200 µM, 120 µM and 2.73.
